Reference: ChEMBL document CHEMBL4196088, “Induction of cell killing and autophagy by amphiphilic pyrrolidine derivatives on human pancreatic cancer cells” (Eur J Med Chem, 2018)

Each compound was assayed on BXPC-3 (assay: Growth inhibition of human BxPC3 cells after 72 hrs by XTT assay). Conditions: BXPC-3, 72 h.
Format: functional, cell-based

Compared with `C=CCCCCCCCCCOC[C@@H]1CCCN1`, `C=CCCCCCCOC[C@@H]1CCCN1` is higher in IC50: 6.3 µM for the first, greater than 100 µM for the second. The first is the more potent here.

Going from `CC(C)(C)OC(=O)N1CCC[C@H]1COCCCCCCCC/C=C/c1ccc(Oc2ccccc2)cc1` to `CC(C)(C)OC(=O)N1CCC[C@H]1COCCCCCC/C=C/c1ccc(Oc2ccccc2)cc1`, the IC50 falls from greater than 100 µM to 63.3 µM.

Compared with `CC(C)(C)OC(=O)N1CCC[C@H]1COCCCCCC/C=C/c1ccc(-c2ccccc2)cc1`, `CC(C)(C)OC(=O)N1CCC[C@H]1COCCCCCCCCC/C=C/c1ccc(-c2ccccc2)cc1` is lower in IC50: greater than 100 µM for the first, 60 µM for the second.

`O=CN1CCC[C@H]1COCCCCCCCCC/C=C/c1ccc(Oc2ccccc2)cc1` and `O=CN1CCC[C@H]1COCCCCCC/C=C/c1ccc(Oc2ccccc2)cc1` are within 1.5-fold of each other in IC50: 65 µM for the first, 46.7 µM for the second.

Compared with `C=CCCCCCCOC[C@@H]1CCCN1C(=O)OC(C)(C)C`, `CCCCCCCC/C=C/CCCCCCCCOC[C@@H]1CCCN1C(=O)OC(C)(C)C` is higher in IC50: 53.3 µM for the first, greater than 100 µM for the second. The first is the more potent here.

`CC(C)(C)OC(=O)NCC(=O)N1CCC[C@H]1COCCCCCC/C=C/c1ccc(-c2ccccc2)cc1` and `CC(C)(C)OC(=O)NCC(=O)N1CCC[C@H]1COCCCCCC/C=C/c1ccc(Oc2ccccc2)cc1` are within 1.5-fold of each other in IC50: 66.7 µM for the first, 80 µM for the second.

`CC(=O)N1CCC[C@H]1COCCCCCC/C=C/c1ccc(-c2ccccc2)cc1` and `CC(=O)N1CCC[C@H]1COCCCCCCCCC/C=C/c1ccc(-c2ccccc2)cc1` are within 1.5-fold of each other in IC50: 50 µM for the first, 56.7 µM for the second.

`CC(=O)N1CCC[C@H]1COCCCCCCCCC/C=C/c1ccc(Oc2ccccc2)cc1` and `CC(=O)N1CCC[C@H]1COCCCCCC/C=C/c1ccc(Oc2ccccc2)cc1` are within 1.5-fold of each other in IC50: 73.3 µM for the first, 60 µM for the second.

`C(=C\c1ccc(Oc2ccccc2)cc1)/CCCCCCCCCOC[C@@H]1CCCN1` and `C(=C\c1ccc(Oc2ccccc2)cc1)/CCCCCCOC[C@@H]1CCCN1` are within 1.5-fold of each other in IC50: 56.7 µM for the first, 49.7 µM for the second.

Going from `O=CN1CCC[C@H]1COCCCCCCCCC/C=C/c1ccc(-c2ccccc2)cc1` to `Cc1ccc([S+]([O-])N2CCC[C@H]2COCCCCCCCCC/C=C/c2ccc(-c3ccccc3)cc2)cc1` (stereo not given in full), the IC50 rises from 66.7 µM to greater than 100 µM.

Compared with `C=CCCCCCCCCCOC[C@@H]1CCCN1[S+]([O-])c1ccc(C)cc1` (stereo not given in full), `CCCCCCCC/C=C\CCCCCCCCOC[C@@H]1CCCN1[S+]([O-])c1ccc(C)cc1` (stereo not given in full) is higher in IC50: 50 µM for the first, greater than 100 µM for the second.

Compared with `Cc1ccc([S+]([O-])N2CCC[C@H]2COCCCCCC/C=C/c2ccc(Oc3ccccc3)cc2)cc1` (stereo not given in full), `Cc1ccc([S+]([O-])N2CCC[C@H]2COCCCCCC/C=C/c2ccc(-c3ccccc3)cc2)cc1` (stereo not given in full) is higher in IC50: 50 µM for the first, no less than 100 µM for the second. The first is the more potent here.

Compound `CC(C)(C)OC(=O)NCC(=O)N1CCC[C@H]1COCCCCCCCCC/C=C\c1ccc(Oc2ccccc2)cc1` has an IC50 greater than 100 µM.

The compounds below were run on MIA PaCa-2 (assay: Growth inhibition of human MIAPaCa2 cells after 72 hrs by MTT assay). Conditions: MIA PaCa-2, 72 h.
Format: functional, cell-based

Compared with `C=CCCCCCCCCCOC[C@@H]1CCCN1`, `C=CCCCCCCOC[C@@H]1CCCN1` is 4.3-fold higher in IC50: 17.1 µM for the first, 72.9 µM for the second. The first is the more potent here.

First: CC(C)(C)OC(=O)N1CCC[C@H]1COCCCCCCCC/C=C/c1ccc(Oc2ccccc2)cc1
Second: CC(C)(C)OC(=O)N1CCC[C@H]1COCCCCCC/C=C/c1ccc(Oc2ccccc2)cc1
The IC50 of the first is higher: greater than 100 µM for the first, 8.5 µM for the second.

Compared with `CC(C)(C)OC(=O)N1CCC[C@H]1COCCCCCC/C=C/c1ccc(-c2ccccc2)cc1`, `CC(C)(C)OC(=O)N1CCC[C@H]1COCCCCCCCCC/C=C/c1ccc(-c2ccccc2)cc1` is 2.5-fold higher in IC50: 23 µM for the first, 57.4 µM for the second. The first is the more potent here.

First: C=CCCCCCCOC[C@@H]1CCCN1C(=O)OC(C)(C)C
Second: CCCCCCCC/C=C/CCCCCCCCOC[C@@H]1CCCN1C(=O)OC(C)(C)C
The IC50 of the first is lower: 47.1 µM for the first, greater than 100 µM for the second. The first is the more potent here.

Compared with `C(=C\c1ccc(Oc2ccccc2)cc1)/CCCCCCCCCOC[C@@H]1CCCN1`, `C(=C\c1ccc(Oc2ccccc2)cc1)/CCCCCCOC[C@@H]1CCCN1` is 2.6-fold lower in IC50: 19.3 µM for the first, 7.4 µM for the second.

What follows are compounds tested on PANC-1 (assay: Growth inhibition of human PANC1 cells after 72 hrs by XTT assay). Conditions: PANC-1, 72 h.
Format: functional, cell-based

Compared with `C=CCCCCCCCCCOC[C@@H]1CCCN1`, `C=CCCCCCCOC[C@@H]1CCCN1` is higher in IC50: 50 µM for the first, greater than 100 µM for the second. The first is the more potent here.

`CC(C)(C)OC(=O)N1CCC[C@H]1COCCCCCCCC/C=C/c1ccc(Oc2ccccc2)cc1` and `CC(C)(C)OC(=O)N1CCC[C@H]1COCCCCCC/C=C/c1ccc(Oc2ccccc2)cc1` are within 1.5-fold of each other in IC50: 90 µM for the first, 63.3 µM for the second.

Going from `CC(C)(C)OC(=O)N1CCC[C@H]1COCCCCCC/C=C/c1ccc(-c2ccccc2)cc1` to `CC(C)(C)OC(=O)N1CCC[C@H]1COCCCCCCCCC/C=C/c1ccc(-c2ccccc2)cc1`, the IC50 falls from greater than 100 µM to 80 µM.

`O=CN1CCC[C@H]1COCCCCCCCCC/C=C/c1ccc(Oc2ccccc2)cc1` and `O=CN1CCC[C@H]1COCCCCCC/C=C/c1ccc(Oc2ccccc2)cc1` are within 1.5-fold of each other in IC50: 63.3 µM for the first, 53.3 µM for the second.

Compared with `C=CCCCCCCOC[C@@H]1CCCN1C(=O)OC(C)(C)C`, `CCCCCCCC/C=C/CCCCCCCCOC[C@@H]1CCCN1C(=O)OC(C)(C)C` is higher in IC50: 56.7 µM for the first, greater than 100 µM for the second.

`CC(C)(C)OC(=O)NCC(=O)N1CCC[C@H]1COCCCCCC/C=C/c1ccc(-c2ccccc2)cc1` and `CC(C)(C)OC(=O)NCC(=O)N1CCC[C@H]1COCCCCCC/C=C/c1ccc(Oc2ccccc2)cc1` are within 1.5-fold of each other in IC50: 66.7 µM for the first, 63.3 µM for the second.

`CC(=O)N1CCC[C@H]1COCCCCCC/C=C/c1ccc(-c2ccccc2)cc1` and `CC(=O)N1CCC[C@H]1COCCCCCCCCC/C=C/c1ccc(-c2ccccc2)cc1` are within 1.5-fold of each other in IC50: 65 µM for the first, 70 µM for the second.

Compared with `CC(=O)N1CCC[C@H]1COCCCCCCCCC/C=C/c1ccc(Oc2ccccc2)cc1`, `CC(=O)N1CCC[C@H]1COCCCCCC/C=C/c1ccc(Oc2ccccc2)cc1` is 1.6-fold lower in IC50: 65 µM for the first, 40 µM for the second. The second is the more potent here.

First: C(=C\c1ccc(Oc2ccccc2)cc1)/CCCCCCCCCOC[C@@H]1CCCN1
Second: C(=C\c1ccc(Oc2ccccc2)cc1)/CCCCCCOC[C@@H]1CCCN1
The IC50 of the first is 2-fold higher: 60 µM for the first, 30 µM for the second.

First: O=CN1CCC[C@H]1COCCCCCCCCC/C=C/c1ccc(-c2ccccc2)cc1
Second: Cc1ccc([S+]([O-])N2CCC[C@H]2COCCCCCCCCC/C=C/c2ccc(-c3ccccc3)cc2)cc1 (stereo not given in full)
The IC50 of the first is lower: 56.7 µM for the first, greater than 100 µM for the second. The first is the more potent here.

First: C=CCCCCCCCCCOC[C@@H]1CCCN1[S+]([O-])c1ccc(C)cc1 (stereo not given in full)
Second: CCCCCCCC/C=C\CCCCCCCCOC[C@@H]1CCCN1[S+]([O-])c1ccc(C)cc1 (stereo not given in full)
The IC50 of the first is lower: 56.7 µM for the first, greater than 100 µM for the second.

First: Cc1ccc([S+]([O-])N2CCC[C@H]2COCCCCCC/C=C/c2ccc(Oc3ccccc3)cc2)cc1 (stereo not given in full)
Second: Cc1ccc([S+]([O-])N2CCC[C@H]2COCCCCCC/C=C/c2ccc(-c3ccccc3)cc2)cc1 (stereo not given in full)
The IC50 of the first is lower: 60 µM for the first, no less than 100 µM for the second. The first is the more potent here.

In the case of `CC(C)(C)OC(=O)NCC(=O)N1CCC[C@H]1COCCCCCCCCC/C=C\c1ccc(Oc2ccccc2)cc1`, the IC50 is reported as greater than 100 µM.

The compounds below were run on PK9 (assay: Growth inhibition of human PK9 cells after 72 hrs by MTT assay). Conditions: PK9, 72 h.
Format: functional, cell-based

Compared with `C=CCCCCCCCCCOC[C@@H]1CCCN1`, `C=CCCCCCCOC[C@@H]1CCCN1` is 3.1-fold higher in IC50: 18.9 µM for the first, 57.7 µM for the second. The first is the more potent here.

Compared with `CC(C)(C)OC(=O)N1CCC[C@H]1COCCCCCCCC/C=C/c1ccc(Oc2ccccc2)cc1`, `CC(C)(C)OC(=O)N1CCC[C@H]1COCCCCCC/C=C/c1ccc(Oc2ccccc2)cc1` is lower in IC50: greater than 100 µM for the first, 69.5 µM for the second.

`CC(C)(C)OC(=O)N1CCC[C@H]1COCCCCCC/C=C/c1ccc(-c2ccccc2)cc1` and `CC(C)(C)OC(=O)N1CCC[C@H]1COCCCCCCCCC/C=C/c1ccc(-c2ccccc2)cc1` cannot be ordered by IC50: greater than 100 µM for the first, greater than 100 µM for the second.

First: C=CCCCCCCOC[C@@H]1CCCN1C(=O)OC(C)(C)C
Second: CCCCCCCC/C=C/CCCCCCCCOC[C@@H]1CCCN1C(=O)OC(C)(C)C
The IC50 of the first is lower: 57.1 µM for the first, greater than 100 µM for the second. The first is the more potent here.

Compared with `C(=C\c1ccc(Oc2ccccc2)cc1)/CCCCCCCCCOC[C@@H]1CCCN1`, `C(=C\c1ccc(Oc2ccccc2)cc1)/CCCCCCOC[C@@H]1CCCN1` is 1.8-fold lower in IC50: 20.7 µM for the first, 11.4 µM for the second. The second is the more potent here.
